From US20240082311A1, “COMPOSITIONS AND METHODS FOR TREATING SPINAL CORD INJURIES” (ASTERIAS BIOTHERAPEUTICS, INC., priority 2021, published 2024)

What was measured:
[1] = test system: subjects with subacute cervical spinal cord injury (C4-C7, AIS A/B); experiment: Phase 1/2a cervical SCI dose escalation study: safety, adverse events, MRI; assay type: in vivo, human
Experimental: Study Design. The trial design was an open-label, staggered dose escalation, cross-sequential, multicenter study. Three sequential, escalating doses of AST-OPC1 were administered at a single tie point between 21 and 42 days post-injury to subjects with subacute cervical spinal cord injuries (SCI). Subjects received AST-OPC1 via direct intra-spinal injection using a Syringe Positioning Device (SPD). To prevent rejection of engraftment, low dose tacrolimus was initiated 6 to 12 hours after and intra-spinal injection, and continued for 46 days, tapered from Day 46 to Day 60, and was discontinued at Day 60. Subjects were followed for 1 year following administration of AST-OPC1 under this protocol. Male or female subjects from 18 to 69 years of age at time of consent with sensorimotor complete, traumatic SCI (American Spinal Injury Association Impairment Scale A) or sensorimotor incomplete, traumatic SCI (American Spinal Injury Association Impairment Scale B). […] There was a single spinal cord lesion on a post-stabilization magnetic resonance imaging (MRI) scan, with sufficient visualization of the spinal cord injury epicenter and lesion margins to enable post-injection safety monitoring. Subjects were able to participate in an elective surgical procedure to inject AST-OPC1 21 to 42 days following SCI. Subjects received a single dose of either 2×10^6, 1×10^7, or 2×10^7 AST-OPC1 viable cells by injection, administered 21 to 42 days following SCI. The product was delivered intraoperatively into the spinal cord using the Syringe Positioning Device. The AST-OPC1 batch numbers used in this study were M08D1A, M22D1A and M25D1A. Single administration of AST-OPC1 was provided with 1 year of follow-up. Schematics of the planned study timeline, and subject screening and treatment, are provided in FIG. 6 and FIG. 7, respectively. A schematic diagram of the final open-label, staggered dose-escalation, multicenter Phase 1/2a clinical trial is shown in FIG. 8. An overview of study visits for the one-year protocol is presented in the study schema in FIG. 9.
A neurological examination was completed using the standardized International Standards for Neurological Classification of Spinal Cord Injury (ISNCSCI) examination for motor and sensory testing and for designation of the American Spinal Injury Association impairment scale. The ISNCSCI is used for efficacy with respect to improved motor function in the extremities, improved sensory function, and/or a descending neurological level. Safety assessments included physical examination, vital signs, ISNCSCI neurological examination, pain questionnaire (International Spinal Cord Injury Pain Basic Data Set, ISCIPBDS), electrocardiogram (ECG), Magnetic Resonance Imaging (MRI), laboratory tests, concomitant medications, and adverse events (AEs). Results for the ISNCSCI were listed for each subject by scheduled visit and analyzed by change in motor level and motor scores as well as other exploratory assessments of arm/hand function, self-care ability and overall volitional performance. Adverse events were tabulated by system organ class and by preferred term within system organ class according to the Medical Dictionary for Regulatory Activities (MedDRA®) Version 18.0. Statistical analysis of the safety data was performed using descriptive statistical methods including AEs incidence, severity and relatedness to AST-OPC1, to the injection procedure for product administration, and concomitant immunosuppression with tacrolimus. The number of laboratory assessments (hematology, clinical chemistry) that were below, within, or above the normal laboratory reference range were summarized for each analyte at scheduled study visits. Vital signs were summarized by calculating the mean, standard deviation, median, and range of values at each of the protocol-specified time points.
Study Endpoints. […]

[2] = test system: participants with neurologically complete thoracic spinal cord injury (T3-T11); experiment: Phase 1 thoracic SCI trial (NCT01217008): safety, adverse events; assay type: in vivo, human; conditions: N=5
Experimental: Study design. The trial design was an open-label, multicenter study. A single dose of 2×10^6 LCTOPC1 was injected within 7 to 14 days following SCI. Subjects who received LCTOPC1 also received tacrolimus to prevent rejection.
This study was a Phase 1, multi-center, non-randomized, a single group assignment interventional clinical trial. The Participants were enrolled from one of seven centers in the United States. The study was registered (NCT01217008) and the primary endpoint was safety, as measured by the frequency and severity of adverse events related to LCTOPC1, the injection procedure used to administer LCTOPC1, and/or the concomitant immunosuppression administered. The secondary endpoint was neurological function as measured by sensory scores and lower extremity motor scores on ISNCSCI examinations.
Safety Assessments. The primary endpoint of the Phase 1 clinical trial was safety, as measured by the frequency and severity of adverse events (AEs) within 1 year of LCTOPC1 injection that were related to LCTOPC1, the injection procedure used to administer LCTOPC1, and/or the concomitant immunosuppression administered. […]
Definition of an Adverse Event. […] The severity of AEs and the characterization of Serious Adverse Events (SAEs) were evaluated using standard FDA criteria.
The relationship of AEs to the investigational drug was determined by each site investigator and was categorized as “Possibly Related” based on the following criteria: 1) the AE was reasonably related in time with LCTOPC1 exposure, the injection procedure used to administer LCTOPC1, and/or the concomitant immunosuppression administered AND 2) the AE could be explained either by exposure to the investigational product or equally well by factors or causes other than exposure to the investigational product. Adverse events were monitored by the External Medical Monitor, Sponsor Medical Monitor, and DSMB.

[3] = test system: dorsal funicular lesion (DFL) SCI model; conditions: cited from earlier work

## C=CC[C@@H]1/C=C(\C)C[C@H](C)C[C@H](OC)[C@H]2O[C@@](O)(C(=O)C(=O)N3CCCC[C@H]3C(=O)O[C@H](/C(C)=C/[C@@H]3CC[C@@H](O)[C@H](OC)C3)[C@H](C)[C@@H](O)CC1=O)[C@H](C)C[C@@H]2OC [Tacrolimus, tacrolimus]
[1]; both, human, in vivo
  Hypomagnesemia: Days from Injection: 5 to 43 days
  Nausea: Days from Injection: 7 days
[1]; both, human, in vivo, 365 days
  Decreased Appetite: Severity: Grade 2
  Hypomagnesemia: Severity: Grade 1-2
  Nausea: Severity: Grade 2
[1]; causality Tacrolimus
  Bacterial infection: Days from Injection: 30 days
  Bacterial infection: Outcome: Resolved
  Bacterial infection: Severity: Grade 3
[1]; in vivo
  Decreased Appetite: Outcome: Resolved
  Hypomagnesemia: Outcome: Resolved
  Nausea: Outcome: Resolved
[2]
  Grade 1 AEs possibly related specifically to tacrolimus (number): Seven
  Grade 2 AEs possibly related specifically to tacrolimus (number): nine
[2]; tacrolimus to Day 60, trough 3 to 7 ng/mL
  AEs possibly related specifically to the immunosuppression (number of the 25): Sixteen

B1: Decorin: small leucine-rich proteoglycan, TGF-β1/2 antagonist; recombinant form tested in rat SCI models (protein, UniProt P07585 31-359, looked up)
Decorin: DEASGIGPEVPDDRDFEPSLGPVCPFRCQCHLRVVQCSDLGLDKVPKDLPPDTTLLDLQNNKITEIKDGDFKNLKNLHALILVNNKISKVSPGAFTPLVKLERLYLSKNQLKELPEKMPKTLQELRAHENEITKVRKVTFNGLNQMIVIELGTNPLKSSGIENGAFQGMKKLSYIRIADTNITSIPQGLPPSLTELHLDGNKISRVDAASLKGLNNLAKLGLSFNSISAVDNGSLANTPHLRELHLDNNKLTRVPGGLAEHKYIQVVYLHNNNISVVGSSDFCPPGHNTKKASYSGVSLFSNPVQYWEIQPSTFRCVYVRSAIQLGNYK
[3]; DFL SCI model, adult rats
  Acute scarring and wound cavitation: suppressed acute scarring (fibrogenesis) and wound cavitation
[3]; acute and chronic experiments, vs PBS-treated DFL
  Axonal regrowth: promoted axonal regrowth
[3]; after acute spinal cord injury
  Inflammation, glial scar formation and CSPG expression: inhibit inflammation, glial scar formation and CSPG expression
